Measured values published in patent US6472386B1, “Cyclic diamine compound with 5-membered ring groups” (Kowa Co., Ltd., priority 2001, dated 2002).
Read-outs that look alike come from different tables or passages of the source.

Test system: adhesion of U937 cells to HUVEC stimulated by IL-1β or TNFα
Assay: Inhibitory effect on cell adhesion (U937 cells adhering to stimulated HUVEC)
Assay type: cell-based
Conditions: Homo sapiens, compound at 1 μM
Method: This test was conducted by reference to the method of Ross et al. (J. Biol. Chem., 267, 8537-8543 (1992)). More specifically, after human umbilical venous endothelial cells (HUVEC) were cultured on a 48-well plate to confluent growth, IL-1β or TNFα was added thereto. Upon elapsed time of 5 hours after the addition, U937, which is a human monocytic/histocytic cell fluorescence-labeled with PKH2 (product of Dainippon Pharmaceutical Co., Ltd.), was added in a proportion of 1×10^6 cells per well. After the plate was left at rest at room temperature for 1 hour, unadhered U937 was washed out and lysed in 1% Triton X-100 to measure a remaining fluorescence intensity (excitation wavelength: 480 nm; measuring wavelength: 530 nm). HUVEC and U937 were cultured in EGM-2 (product of Sanko Junyaku K.K.) and 10% FCS-containing RPMI1640, respectively. Each test agent was added to HUVEC upon the addition of IL-1β or TNFα and to U937 24 hours prior to the cell adhesion test. The inhibitory activity was calculated out according to the equation [100-(C−B)/(A−B)×100 (%)], wherein A is the number of U937 cells adhered to HUVEC stimulated by IL-1β or TNFα when no test agent was added, B is the number of U937 cells adhered to HUVEC not stimulated by IL-1β or TNFα when no test agent was added, and C is the number of U937 cells adhered to HUVEC stimulated by IL-1β or TNFα when the test agent was added. As control compounds, Test Compound 1 described in Japanese Patent Application Laid-Open No. 9-143075 and dilazep described in Japanese Patent Application Laid-Open No. 11-92382 were simultaneously evaluated.

[1] = HUVEC stimulated by IL-1β, read-out: Percent inhibition (%) Stimulation by IL-1β
[2] = HUVEC stimulated by TNFα, read-out: Percent inhibition (%) Stimulation by TNFα

Structure (SMILES) | inhibition at 1 µM [1] [%] | inhibition at 1 µM [2] [%]
COc1cc(C(=O)Nc2nc(CN3CCCN(Cc4csc(NC(=O)c5cc(OC)c(OC)c(OC)c5)n4)CC3)cs2)cc(OC)c1OC [Example 9, N,N′-bis[[2-(3,4,5-Trimethoxybenzamido)-thiazol-4-yl]methyl]homopiperazine] | 40 | 50
COc1cc(-c2nc(C)c(CN3CCCN(Cc4sc(-c5cc(OC)c(OC)c(OC)c5)nc4C)CC3)s2)cc(OC)c1OC [Example 11, N,N′-bis[[4-Methyl-2-(3,4,5-trimethoxy-phenyl)thiazol-5-yl]methyl]homopiperazine Dimaleate] | 33 | 53
COc1cc(C(=O)Nc2nc(CN3CCN(Cc4csc(NC(=O)c5cc(OC)c(OC)c(OC)c5)n4)CC3)cs2)cc(OC)c1OC [Example 8, N,N′-bis[[2-(3,4,5-Trimethoxybenzamido)-thiazol-4-yl]methyl]piperazine] | 64 | 58
COc1cc(C(=O)OCCCN2CCCN(CCCOC(=O)c3cc(OC)c(OC)c(OC)c3)CC2)cc(OC)c1OC [Dilazep, dilazep, reference compound] | 0 | 12
COc1cc(-c2nc(CCCN3CCCN(CCCc4csc(-c5cc(OC)c(OC)c(OC)c5)n4)CC3)cs2)cc(OC)c1OC [Example 6, N,N′-bis[3-(2-(3,4,5-Trimethoxyphenyl)-thiazol-4-yl)propyl]homopiperazine] | 54 | 45
COc1cc(-c2cc(CN3CCN(Cc4cc(-c5cc(OC)c(OC)c(OC)c5)n(Cc5ccccc5)n4)CC3)nn2Cc2ccccc2)cc(OC)c1OC [Example 16, N,N′-bis[[1-Benzyl-5-(3,4,5-trimethoxy-phenyl)pyrazol-3-yl]methyl]piperazine] | 30 | 51
COc1cc(C#Cc2nc(CN3CCCN(Cc4csc(C#Cc5cc(OC)c(OC)c(OC)c5)n4)CC3)cs2)cc(OC)c1OC [Example 7, N,N′-bis[[2-(3,4,5-Trimethoxyphenylethynyl)-thiazol-4-yl]methyl]homopiperazine] | 46 | 60
